In patent publication EP4667458A1 (Kanaph Therapeutics Inc., priority 2023, dated 2024) one finds IC50 data, which are given here for 12 compounds.

The target in the assay is T1, KRAS^G12C::SOS1 (Homo sapiens, UniProt Q07889).
T1 sequence (Q07889 1-1333): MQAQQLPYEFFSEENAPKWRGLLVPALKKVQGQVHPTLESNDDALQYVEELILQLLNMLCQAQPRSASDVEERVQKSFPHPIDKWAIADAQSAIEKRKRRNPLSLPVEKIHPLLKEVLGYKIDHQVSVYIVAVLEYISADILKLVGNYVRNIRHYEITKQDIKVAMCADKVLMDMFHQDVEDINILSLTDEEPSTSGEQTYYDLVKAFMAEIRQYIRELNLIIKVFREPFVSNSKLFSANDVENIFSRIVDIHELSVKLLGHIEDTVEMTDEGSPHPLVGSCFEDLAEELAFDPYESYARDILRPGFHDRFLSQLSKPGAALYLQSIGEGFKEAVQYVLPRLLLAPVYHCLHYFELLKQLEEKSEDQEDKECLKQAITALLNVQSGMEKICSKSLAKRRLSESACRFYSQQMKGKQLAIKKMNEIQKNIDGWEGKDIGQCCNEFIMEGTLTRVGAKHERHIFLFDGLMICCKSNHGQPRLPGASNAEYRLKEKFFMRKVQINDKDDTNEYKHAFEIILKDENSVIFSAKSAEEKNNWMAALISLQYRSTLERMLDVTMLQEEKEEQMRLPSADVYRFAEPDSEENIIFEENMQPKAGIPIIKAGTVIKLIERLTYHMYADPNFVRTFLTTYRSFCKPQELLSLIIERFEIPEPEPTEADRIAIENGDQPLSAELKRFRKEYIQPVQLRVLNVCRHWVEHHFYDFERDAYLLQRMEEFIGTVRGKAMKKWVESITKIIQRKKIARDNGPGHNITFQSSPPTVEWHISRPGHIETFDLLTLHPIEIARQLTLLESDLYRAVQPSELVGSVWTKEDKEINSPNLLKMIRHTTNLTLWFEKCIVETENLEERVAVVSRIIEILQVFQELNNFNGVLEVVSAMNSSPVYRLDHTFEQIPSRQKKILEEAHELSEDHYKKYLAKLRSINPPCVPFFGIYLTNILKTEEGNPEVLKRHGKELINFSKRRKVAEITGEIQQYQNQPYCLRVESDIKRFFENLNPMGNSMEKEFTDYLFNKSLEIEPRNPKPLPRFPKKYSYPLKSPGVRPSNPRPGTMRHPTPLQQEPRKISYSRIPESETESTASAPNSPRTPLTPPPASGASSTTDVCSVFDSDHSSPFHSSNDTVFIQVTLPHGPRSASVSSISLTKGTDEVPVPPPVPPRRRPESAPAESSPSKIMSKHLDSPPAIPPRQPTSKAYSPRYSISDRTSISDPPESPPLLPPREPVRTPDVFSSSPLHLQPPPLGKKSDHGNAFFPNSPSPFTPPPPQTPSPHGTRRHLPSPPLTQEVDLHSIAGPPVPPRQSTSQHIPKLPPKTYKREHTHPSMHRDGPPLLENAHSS
Put plainly: KRAS G12C::SOS1 protein-protein interaction (PPI) inhibition assay (HTRF binding kit). (In TR-FRET formats the signal depends on donor and acceptor labels being close together.)
The IC50 is the concentration needed to halve the response being measured. Low values mean higher potency, high ones lower potency. `C[C@@H](NC(=O)c1ccc(=O)n(-c2cccc(-c3ccnn3C)c2)n1)c1cccc(C(F)(F)CO)c1F` [Example 332, N-[(1R)-1-[3-(1,1-difluoro-2-hydroxy-ethyl)-2-fluoro-phenyl]ethyl]-1-[3-(2-methylpyrazol-3-yl)phenyl]-6-oxo-pyridazine-3-carboxamide]: the concentration for half-maximal inhibition (IC50) was under 1 µM.
Then `C[C@@H](NC(=O)c1ccc(=O)n(-c2cccc(-c3ccnn3C)c2)n1)c1cc(N)cc(C(F)(F)F)c1` [Example 333, N-[(1R)-1-[3-amino-5-(trifluoromethyl)phenyl]ethyl]-1-[3-(2-methylpyrazol-3-yl)phenyl]-6-oxo-pyridazine-3-carboxamide], with under 1 µM; and `C[C@@H](NC(=O)c1ccc(=O)n(-c2cccc(-c3cnn(C)c3)c2)n1)c1cc(N)cc(C(F)(F)F)c1` [Example 334, N-[(1R)-1-[3-amino-5-(trifluoromethyl)phenyl]ethyl]-1-[3-(1-methylpyrazol-4-yl)phenyl]-6-oxo-pyridazine-3-carboxamide], with under 1 µM.
Then `C[C@@H](NC(=O)c1ccc(=O)n(-c2cccc(-c3cnnn3C)c2)c1)c1cccc(C(F)(F)CO)c1F` [Example 335, N-[(1R)-1-[3-(1,1-difluoro-2-hydroxy-ethyl)-2-fluoro-phenyl]ethyl]-1-[3-(3-methyltriazol-4-yl)phenyl]-6-oxo-pyridine-3-carboxamide], with under 1 µM; and `C[C@@H](NC(=O)c1ccc(=O)n(-c2cccc(-c3nccs3)c2)n1)c1cccc(C(F)(F)CO)c1F` [Example 336, N-[(1R)-1-[3-(1,1-difluoro-2-hydroxy-ethyl)-2-fluoro-phenyl]ethyl]-6-oxo-1-(3-thiazol-2-ylphenyl)pyridazine-3-carboxamide], with under 1 µM; and `C[C@@H](NC(=O)c1ccc(=O)n(-c2cccc(-c3nccs3)c2)n1)c1cc(N)cc(C(F)(F)F)c1` [Example 337, N-[(1R)-1-[3-amino-5-(trifluoromethyl)phenyl]ethyl]-6-oxo-1-(3-thiazol-2-ylphenyl)pyridazine-3-carboxamide], with under 1 µM.
With `C[C@@H](NC(=O)c1ccc(=O)n(-c2cccc(-c3cccnc3)c2)n1)c1cc(N)cc(C(F)(F)F)c1` [Example 338, N-[(1R)-1-[3-amino-5-(trifluoromethyl)phenyl]ethyl]-6-oxo-1-[3-(3-pyridyl)phenyl]pyridazine-3-carboxamide] the figure was under 1 µM; with `C[C@@H](NC(=O)c1ccc(=O)n(-c2cccc(-c3cncs3)c2)n1)c1cccc(C(F)(F)CO)c1F` [Example 339, N-[(1R)-1-[3-(1,1-difluoro-2-hydroxy-ethyl)-2-fluorophenyl]ethyl]-6-oxo-1-(3-thiazol-5-ylphenyl)pyridazine-3-carboxamide], under 1 µM.
In the case of `C[C@@H](NC(=O)c1ccc(=O)n(-c2cccc(-c3cnn(C)c3)c2)n1)c1cccc(C(F)(F)CO)c1F` [Example 340, N-[(1R)-1-[3-(1,1-difluoro-2-hydroxy-ethyl)-2-fluoro-phenyl]ethyl]-1-[3-(1-methylpyrazol-4-yl)phenyl]-6-oxo-pyridazine-3-carboxamide], the half-maximal inhibitory concentration (IC50) is under 1 µM.
With `C[C@@H](NC(=O)c1ccc(=O)n(-c2cccc(-c3cncs3)c2)n1)c1cc(N)cc(C(F)(F)F)c1` [Example 341, N-[(1R)-1-[3-amino-5-(trifluoromethyl)phenyl]ethyl]-6-oxo-1-(3-thiazol-5-ylphenyl)pyridazine-3-carboxamide] the figure was under 1 µM; with `C[C@@H](NC(=O)c1ccc(=O)n(-c2cccc(-c3ccno3)c2)n1)c1cc(N)cc(C(F)(F)F)c1` [Example 342, N-[(1R)-1-[3-amino-5-(trifluoromethyl)phenyl]ethyl]-1-(3-isoxazol-5-ylphenyl)-6-oxo-pyridazine-3-carboxamide], under 1 µM; with `C[C@@H](NC(=O)c1ccc(=O)n(-c2cccc(-c3cnco3)c2)n1)c1cc(N)cc(C(F)(F)F)c1` [Example 343, N-[(1R)-1-[3-amino-5-(trifluoromethyl)phenyl]ethyl]-1-(3-oxazol-5-ylphenyl)-6-oxo-pyridazine-3-carboxamide], under 1 µM.
